Assay results reported in patent publication US20070203220A1, “Inhibitors Of PAI-1 For Treatment Of Muscular Conditions” (Wyeth, priority 2006, published 2007).

How the values were obtained:
mdx mice = assay: mdx mouse model of muscular dystrophy, drug in rodent chow for 9 months, muscle and body weights; type: in vivo; conditions: female mdx mice
Text: The mdx mouse is a genetic model of Duchenne and Becker muscular dystrophies, providing a model system of muscle degeneration with aberrant regeneration. In this model, a nonsense mutation in the dystrophin gene results in the absence of dystrophin from the sarcolemma, and subsequent muscle fiber necrosis. Conversely, mice deficient in plasminogen activator inhibitor-1 have improved skeletal muscle regeneration. It was hypothesized that a small molecule PAI-1 inhibitor, such as, for example {1-Benzyl-5-[4-(trifluoromethoxy)phenyl]-1H-indol-3-yl}(oxo)acetic acid could potentially produce beneficial effects on the skeletal muscle of mdx mice.
Female mdx mice were purchased from a commercial vendor, and divided into 2 groups of equal body weight. {1-Benzyl-5-[4-(trifluoromethoxy)phenyl]-1H-indol-3-yl}(oxo)acetic acid was formulated into rodent chow at a concentration of 1 mg of drug per 1 gram of food (1 mg/g), and this mixture was formed into food pellets. A standard, pelleted rodent chow was used as the control diet. One group of mice received the drug-containing diet, while the other group received the control diet ad libitum. Each diet was coded, and the animal technicians remained blinded to the composition of the diets throughout the study.
Eight mice received either the control or drug-containing diet for 9 months. At the end of the study, the mice were killed, and muscle and body weights were measured. There was no change in body weight between groups (28.1±0.45 g for drug-treated vs. 28.3±0.69 g for Control). […] Because muscular dystrophy is a wasting disease, changes in muscle weight are routinely expressed per unit of body weight in preclinical studies. Therefore, the individual weight of each gastrocnemius muscle (mg) was expressed relative to total body weight (g). […] In drug-treated mice, muscle weight per unit of body weight was 5.02±0.13 mg/g, while in mice on the control diet, this value was 4.56 mg/g±0.20 (p=0.07).

| Structure (SMILES) | melting point | difference in group means of gastrocnemius muscle weight, drug-treated vs control (mdx mice; drug in chow 1 mg/g) | muscle weight per unit of body weight (gastrocnemius) (mdx mice; drug in chow 1 mg/g ad libitum, p=0.07 vs control) | gastrocnemius muscle weight (mdx mice; drug in chow 1 mg/g ad libitum, p=0.11 vs control) |
| --- | --- | --- | --- | --- |
| Cn1cc(C(=O)C(=O)O)c2ccc(-c3ccc(OC(F)(F)F)cc3)cc21 | 233 to 235 °C (dec.) |  |  |  |
| CC(=O)c1ccc(-c2ccc3c(c2)c(C(=O)C(=O)O)cn3Cc2ccccc2)cc1 | 213 to 214 °C (dec.) |  |  |  |
| Cc1ccc(Cn2cc(C(=O)C(=O)O)c3cc(-c4ccccc4)ccc32)cc1 | 195 to 196 °C |  |  |  |
| O=C(O)C(=O)c1cn(Cc2ccccc2)c2ccc(-c3ccc(OC(F)(F)F)cc3)cc12 [{1-Benzyl-5-[4-(trifluoromethoxy)phenyl]-1H-indol-3-yl}(oxo)acetic acid] |  | 8.6% | 5.02 ± 0.13 mg/g | 141.0 ± 4.1 mg |
